Experimental data published in patent US20040220221A1, “Treatment of degenerative diseases” (priority 2002, published 2004).

System: experimentally induced osteoarthritis
Assay: experimentally induced osteoarthritis in guinea pigs (partial medial meniscectomy), joint histology
Format: in vivo, Dunkin Hartley guinea pigs
Conditions: 1, 3 and 10 mg/kg/day orally by gavage, 10 weeks, operated right hind leg joint, blinded pathologist
Description: The following description gives evidence on which the invention is based.
Dunkin Hartley guinea pigs(apart from the blank control) were anaesthetised and underwent partial medial meniscectomy in the right hind leg. 3 doses of +mefloquine, (1 mg/kg/day, 3 mg/kg/day and 10 mg/kg/day) were administered orally by gavage to groups of 10 animals as well as a vehicle control. The vehicle was 0.2% methylcellulose and 0.4% Tween 80 in bidistilled water for the mefloquine groups. The administration volume was 2 mL/kg.
The animals were followed for 10 weeks. Terminal blood samples were taken for drug levels. Histology was performed on the joint, which was operated on, and an assessment of the cartilage structure, cell proliferation and loss of proteoglycans was made. The histology was performed by a blinded pathologist.

For O[C@H](c1cc(C(F)(F)F)nc2c(C(F)(F)F)cccc12)[C@@H]1CCCCN1 [+mefloquine, (+)-erythro-mefloquine], the “degeneration of cartilage (histology: cartilage structure, cell proliferation, loss of proteoglycans)” value was “prevents the degeneration of cartilage”.
